Experimental findings from US9241976B2, “Use of HDL-related molecules to treat and prevent proinflammatory conditions” (THE REGENTS OF THE UNIVERSITY OF CALIFORNIA, priority 2011, dated 2016) are described below.

Square brackets hold non-standard residues; d marks the D form. Ends that are not written are not given here. Peptide text beside a SMILES is read from it. * marks the point of attachment. Cbz = O=C(OCc1ccccc1)*; Aib = CC(C)(N)C(=O)O

In data set [1] the test system is NIH3T3 cells. The experiment in a line: NIH3T3 cell viability, MTS assay. The class given is cell-based. As to conditions: 10 μg/mL, 48 hours. On the technique in general: Tetrazolium dyes change colour on reduction, which living cells bring about.
Protocol: CT26 and NIH3T3 cells (2,000 cells per well) were first cultured in complete medium in 96-well culture plates, and 24 hours later the medium was replaced with serum-free medium. […] Cells were incubated for an additional 48 hours and assayed for viability using MTS assays kit (Promega) according to the manufacturer's protocol.
Data set [2] relates to CT26 cells. The experiment in a line: Tumor-load study: CT26 flank tumors in BALB/c mice. Format: in vivo, mouse. As to conditions: for flank tumor volume / flank tumor weight: Example 3, 10 mg/kg subcutaneous daily for 15 days. Here is the method:
6-week-old BALB/c female mice were given a 100 μL subcutaneous injection of 1×10^6 CT26 cells prepared as a single cell suspension in PBS, and the mice were treated with bHDLor BHDLat 10 mg/kg administered subcutaneously (SQ) daily for 15 days. The mice were sacrificed and tumor weights were measured.
6-week-old BALB/c female mice were given a 100 μl subcutaneous injection of 1×10^6 CT26 cells prepared as a single cell suspension in PBS, treated with peptide at 10 mg/kg by SQ daily for 15 days.
The mice were killed and tumor weights were measured. The tumor volumes were measured using the formula V=½ (L×W^2).
Six-week-old BALB/c female mice were given a […] subcutaneous injection of 1×10^6 CT26 cells prepared as a single cell suspension in PBS, and the mice were treated with sc-4F or L-4F at 10 mg/kg administered subcutaneously daily for 15 days. The mice were sacrificed and tumor weights were measured.

The subject of data set [3] is CT26 cells. The experiment in a line: CT26 cell viability, MTS assay. The settings on record: for Cell viability reduced by, compared with control: Example 3, CT26 cells, 10 μg/ml, 48 hours; for CT26 cell viability vs vehicle-treated controls: Example 6, MTS assay, within 48 hours of treatment.
Protocol: CT26 cell line derived from N-nitroso-N-methyl urethane-induced mouse colon carcinoma of BALB/c origin was purchased from the American Type Culture Collection (ATCC). CT26 cells (2,000 cells per well) were first cultured in complete medium in 96-well culture plates, and 24 hours later the medium was replaced with serum free medium. Following an overnight incubation, the cells were either treated with vehicle (control), or treated with 10 μg/mL of either bHDL. The bHDL were dissolved in H2O. Cells were incubated for an additional 48 hours and assayed for viability using the MTS assays kit (Promega) according to the manufacturer's protocol.
CT26 cell line derived from N-nitroso-N-methyl urethane-induced mouse colon carcinoma of BALB/c origin was purchased from the American Type Culture Collection. CT26 cells (2,000 cells per well) were first cultured in complete medium in 96-well culture plates, and 24 hours later the medium was replaced with serum-free medium. Following an overnight incubation, the cells were either treated with vehicle (control) or treated with 10 mg/mL of either L-4F or G* peptide. The peptides were dissolved in H2O. Cells were incubated for an additional 48 hours and assayed for viability using the MTS assay kit (Promega) according to the manufacturer's protocol.
Data set [4] relates to HIF-1α. The experiment in a line: HIF-1α protein expression in human ovarian cancer cell lines, Western blot. Format: cell-based. As to conditions: OV2008 cells; MG-132 10 μM 3 h, L-4F 10 μg/ml 1 h, insulin 200 nM 4 h. Here is the method: OV2008 cells were cultured in RPMI 1640 media with 10% fetal bovine serum, penicillin (100 U/ml), streptomycin (100 μg/ml), 1× minimal essential medium nonessential amino acid solution (Invitrogen, Carlsbad, Calif.), and insulin (0.25 U/ml) (Invitrogen). CAOV-3 cells were cultured in complete media consisting of Dulbecco's modified Eagle's medium with high glucose and L-glutamine (2 mM), 10% fetal bovine serum, penicillin (100 U/ml), streptomycin (100 μg/ml), and insulin (0.02 U/ml). To create hypoxic conditions, cells were transferred to a hypoxic chamber (model 3130; Thermo Fisher Scientific, Waltham, Mass.), where they were maintained at 37° C. in an atmosphere containing 5% CO2, 1% O2, and 94% N2. L-4F (the peptide Ac-D-W-F-K-A-F-Y-D-K-V-A-E-K-F-K-E-A-F-NH2 (SEQ ID NO: 12) synthesized from all L amino acids) was dissolved in water at 1 mg/ml (freshly prepared every time) and used between 1 and 10 μg/ml. L-5F was synthesized by Peptisyntha Inc. (Torrance, Calif.), dissolved in ABCT buffer (50 mM ammonium bicarbonate, pH 7.0, containing 0.1 mg/ml Tween 20) at 1 mg/ml, and diluted to the required concentrations before use. Cobalt chloride (CoCl2), insulin, cycloheximide (CHX), and N-(benzyloxycarbonyl)leucinylleucinylleucinal-Z-Leu-Leu-Leu-al (MG-132) were purchased from Sigma-Aldrich (St. Louis, Mo.). LPA (Avanti Polar Lipids, Alabaster, Ala.) in chloroform was dried as recommended by the manufacturer, dissolved in ethanol at a concentration of 20 mM as a stock solution, and diluted to the required concentrations in the corresponding cell culture media before use.
Western blot analyses were performed as described previously (Gao et al., 2011). In brief, cell lysates were collected in a lysis buffer containing 0.1 MNaCl, 5 mM EDTA, 50 μM sodium orthovanadate, 1% Triton X-100, and protease inhibitor tablet (Roche Diagnostics, Indianapolis, Ind.) in 50 mM Tris buffer, pH 7.5, loaded onto 4 to 12% Bis-Tris gel (Invitrogen), transferred to polyvinylidene difluoride membrane, and incubated with the appropriate antibodies. Anti-pThr^202/Tyr^204-Erk, anti-Erk, anti-pThr^389-p70 S6 kinase, anti-p70 S6 kinase, anti-pSer^473-Akt, and anti-Akt antibodies were purchased from Cell Signaling Technology (Danvers, Mass.); mouse anti-human HIF-1α antibody was purchased from BD Pharmingen (San Diego, Calif.); rabbit anti-mouse HIF-1α antibody was purchased from Abcam Inc. (Cambridge, Mass.); and anti-GAPDH antibody was purchased from Santa Cruz Biotechnology Inc. (Santa Cruz, Calif.).
In general terms: Immunoblotting shows a protein as a band on a membrane.

In data set [5] the test system is CT26 cells. The experiment in a line: Pulmonary metastasis in vivo: CT26 lung tumors in BALB/c mice. On the set-up: species or system mouse. The settings on record: CT26 via tail vein. Here is the method:
BALB/c mice were intravenously injected with 2×10^4 CT26 cells in 100 μL of PBS via tail vein injection and the mice were treated with bHDL at 10 mg/kg/day administered SQ for 3 weeks; or treated with bHDL at 100 mg/kg/day administered in a chow diet for 3 weeks. After 3 weeks treatment, the mice were sacrificed; lungs were harvested, weighed and fixed with Bouin's solution (Sigma). Tumor nodules on the lung surface were counted.
BALB/c mice were intravenously injected with 2×10^4 CT26 cells in […] of PBS via tail vein injection and the mice were treated with L-4F or sc-4F at 10 mg/kg/d administered subcutaneously for 3 weeks, or treated with sc-4F or L-4F or G* peptide at 100 mg/kg/d administered in a chow diet for 3 weeks. After 3 weeks treatment, the mice were sacrificed; lungs were harvested, weighed, and fixed with Bouin solution (Sigma). Tumor nodules on the lung surface were counted.

The subject of data set [6] is APC^min/+ mice. The data set is described as follows: APC^min/+ mice study, intestinal tumors. The class given is in vivo. The settings on record: C57BL/6J-APC^min/+ mice; 100 mg/kg/d in mouse chow for 8 weeks. On the procedure: 6-week-old APC^Min/+ male mice on a C57BL/6J background were treated with bHDL 100 mg/kg/day administered in a chow diet. After 8 weeks treatment, mice were sacrificed. The entire intestine was immediately removed, fixed in formalin and 70% ethanol. The intestine was opened and examined under a dissecting microscope to count and measure the tumors.
Six-week-oldAPC^min/+ male mice on a C57BL/6J background were treated with L-4F or sc-4F at 100 mg/kg/d administered in a chow diet. After 8 weeks treatment, mice were sacrificed. The entire intestine was immediately removed, fixed in formalin and 70% ethanol. The intestine was opened and examined under a dissecting microscope to count and measure the tumors.

In data set [7] the test system is NIH3T3 cells. The experiment in a line: UV-induced cell death, NIH3T3 cell viability. As to conditions: pre-treatment 10 μg/ml for 24 hrs; UV 5, 10, 20 mJ/cm^2. Format: cell-based. Here is the method:
NIH 3T3 ([…]) ells were seeded in 96 well plates in 4 separate plates. After 24 hrs, cells were starved overnight. Apo A-l was used at a concentration (10 μg/ml) to treat the cells for 24 hrs. After treatment of cells were washed with PBS. One plate was used as a control without UV treatment. The remaining three plates were used for UV treatment at 5, 10, and 20 mJ/cm^2. Following UV treatment, cells were given complete media and were cultured for another 24 hrs. Cell viability was measured for all the plates as described previously (Ganapathy E, et al., 2011, D-4F, an apoA-1 mimetic peptide inhibits proliferation and tumorigenicity of epithelial ovarian cancer cells by upregulating the antioxidant enzyme MnSOD, Int J Cancer 130:1071-1081).

[8] abbreviates: 10 mg/kg/d subcutaneously for 3 weeks.
Setting [9] is: 100 mg/kg/d in chow diet for 3 weeks.

As for `CC(=O)N[C@@H](CC(C)C)C(=O)N[C@@H](CCCNC(=N)N)C(=O)N[C@@H](CCCCN)C(=O)N[C@@H](CC(C)C)C(=O)N[C@@H](CCCNC(=N)N)C(=O)N[C@@H](CCCCN)C(=O)N[C@@H](CCCNC(=N)N)C(=O)N[C@@H](CC(C)C)C(=O)N[C@@H](CC(C)C)C(=O)N[C@@H](CCCNC(=N)N)C(=O)N[C@@H](CC(=O)O)C(=O)N[C@@H](Cc1c[nH]c2ccccc12)C(=O)N[C@@H](CC(C)C)C(=O)N[C@@H](CCCCN)C(=O)N[C@@H](C)C(=O)N[C@@H](Cc1ccccc1)C(=O)N[C@@H](Cc1ccc(O)cc1)C(=O)N[C@@H](CC(=O)O)C(=O)N[C@@H](CCCCN)C(=O)N[C@H](C(=O)NC(C)(C)C(=O)N[C@@H](CCC(=O)O)C(=O)N[C@@H](CCCCN)C(=O)N[C@@H](CC(C)C)C(=O)N[C@@H](CCCCN)C(=O)N[C@@H](CCC(=O)O)C(=O)NC(C)(C)C(=O)N[C@@H](Cc1ccccc1)C(N)=O)C(C)C` [28AA-2, LRKLRKRLLRDWLKAFYDKV-Aib-E-K-L-K-E-Aib-F] (HELM PEPTIDE1{[ac].L.R.K.L.R.K.R.L.L.R.D.W.L.K.A.F.Y.D.K.V.[Aib].E.K.L.K.E.[Aib].F.[am]}$$$$V2.0; N-terminus and C-terminus assumed), the NIH3T3 cell viability result in data set [1] is reported as “not affected”.

In the case of `CC(=O)N[C@@H](CC(=O)O)C(=O)N[C@@H](Cc1c[nH]c2ccccc12)C(=O)N[C@@H](Cc1ccccc1)C(=O)N[C@@H](CCCCN)C(=O)N[C@@H](C)C(=O)N[C@@H](Cc1ccccc1)C(=O)N[C@@H](Cc1ccc(O)cc1)C(=O)N[C@@H](CC(=O)O)C(=O)N[C@@H](CCCCN)C(=O)N[C@H](C(=O)NC(C)(C)C(=O)N[C@@H](CCC(=O)O)C(=O)N[C@@H](CCCCN)C(=O)N[C@@H](Cc1ccccc1)C(=O)N[C@@H](CCCCN)C(=O)N[C@@H](CCC(=O)O)C(=O)NC(C)(C)C(=O)N[C@@H](Cc1ccccc1)C(N)=O)C(C)C` [L-4F2, Ac-D-W-F-K-A-F-Y-D-K-V-Aib-E-K-F-K-E-Aib-F-NH2] (HELM PEPTIDE1{[ac].D.W.F.K.A.F.Y.D.K.V.[Aib].E.K.F.K.E.[Aib].F.[am]}$$$$V2.0), in data set [1], the NIH3T3 cell viability entry is “not affected”. In data set [2], this molecule came in with a flank tumor volume of 197 mm^3 and a flank tumor weight of 118 mg. In data set [3], the “Cell viability reduced by, compared with control” value was “more than 30%” and the “CT26 cell viability vs vehicle-treated controls” value is given as “reduced cell viability”.

As to “K4,15-4F2: SEQ ID NO: 28; K4,15-4F further modified with Aib substitution for alanine at positions 11 and 17 (DWFRAFYDKV[Aib]EKFRE[Aib]F)”, in data set [3], the “CT26 cell viability vs vehicle-treated controls” value was “reduced cell viability”.

As to `CC(C)C[C@@H](C=O)NC(=O)[C@H](CC(C)C)NC(=O)[C@H](CC(C)C)NC(=O)OCc1ccccc1` [MG-132, N-(benzyloxycarbonyl)leucinylleucinylleucinal-Z-Leu-Leu-Leu-al, reference compound] (Cbz-Leu-Leu-Leu-aldehyde), in data set [4], the “effect on the L-4F inhibition of insulin-mediated HIF-1α expression” value is given as “led to a reversal of the inhibitory effect of L-4F”.

Consider “LRKLRKRLLR LVGRQLEEFL (LRKLRKRLLRLVGRQLEEFL; synthetic peptide mimetic) [20AA]”, for which the “CT26 cell viability vs vehicle-treated controls” value in data set [3] is “reduced cell viability”.

“K4,15-4F: SEQ ID NO: 27; based on K14,15 peptides of Nayyar et al., lysines substituted with arginines at residues 4 and 15 (DWFRAFYDKVAEKFREAF; synthetic peptide mimetic)”: the “CT26 cell viability vs vehicle-treated controls” value in data set [3] is listed as “reduced cell viability”.

As to “Ac-D-W-F-A-K-D-Y-F-K-K-A-F-V-E-E-F-A-K-NH2 (Ac-DWFAKDYFKKAFVEEFAK-NH2) [sc-4F, reference compound]”, in data set [5] (setting [8]), the lung weights is given as 280 mg and the “tumor numbers counted on the lung surface” value is on record as 33. Further, in data set [5] (setting [9]), the lung weights is reported as 296 mg and the “tumor numbers on the lung surface” value is listed as 21. In data set [2], this molecule came in with a flank tumor volume of 555 mm^3 and a flank tumor weight of 273 mg. Further, in data set [2] (Example 5, 10 mg/kg subcutaneously daily for 15 days), the flank tumor weights was 778 mg. In data set [6], the “numbers of tumors of diameter 1-3 mm” value was found to be 56.5; the “numbers of tumors of diameter >3 mm” value was 12.8; the “total tumor numbers in the intestinal tract, percent of the control” value is 100%.

As to “ApoA-l: full-length and unmodified ApoA-I, typically human, a 28.2 kDa protein of 244 amino acids”, the “UV-induced cell death (cell viability)” value in data set [7] is listed as “protects NIH3T3 cells from UV-induced cell death”.

Regarding “ApoA-II: a protein that is also associated with HDL like apoA-I [reference compound]”, the “UV-induced cell death (cell viability)” value in data set [7] is given as “did not prevent UV-induced cell death”.

“Ac-LRKLRKRLLRDWLKAFYDKVAEKLKEAF-NH2 [28AA, LRKLRKRLLRDWLKAFYDKVAEKLKEAF, reference compound]”: the NIH3T3 cell viability entry in data set [1] is “not affected”. This molecule also showed a flank tumor weight in data set [2] of 188 mg. For the same molecule, the “Cell viability reduced by, compared with control” value in data set [3] stood at 70%.
